Experimental findings from patent US10413504B2, “Intravaginal ring drug delivery system” (Merck Sharp & Dohme B.V., priority 2013, dated 2019) are described below.

This data set can be described thus: ENG and E2 solubility, diffusion coefficient and permeability in EVA copolymers (two-layer polymer slab, fit with Fick's 2nd law). The following applies: ENG.

Description: For the determination of the solubility concentration and diffusion coefficient a method was developed. The method consists in preparing polymer slab composites with one layer highly loaded with active ingredient (60 wt %) on top of a layer of placebo polymer. The two layers were first pressed separately in a hot press and thereafter combined, also using the press, into a two layer structure. The diffusion of the active ingredient from the loaded layer through the placebo layer is measured in time, for the active ingredient/polymer combination adequate analysis method. Thereafter the experimental diffusion data is fitted with a mathematical model based on Fick's 2nd law of diffusion in one direction. The differential equation is solved using trigonometrical series with the solubility concentration and diffusion coefficient as only unknown variables.

On to `C#C[C@]1(O)CC[C@H]2[C@@H]3CCC4=CC(=O)CC[C@@H]4[C@H]3C(=C)C[C@@]21CC` [ENG, etonogestrel], for which the “Cs (solubility in EVA copolymer)” value worked out at 0.4 mg/g (VA % 9), 0.9 mg/g (VA % 15) and 3.22 mg/g (VA % 28). Besides, the “D (diffusion coefficient in EVA copolymer)” value (VA % 9) is recorded as 2.29 ×10^−13 m^2/s, the “D (diffusion coefficient in EVA copolymer)” value (VA % 15) was 3.17 ×10^−13 m^2/s and the “D (diffusion coefficient in EVA copolymer)” value (VA % 28) was 4.80 ×10^−13 m^2/s.
